The experiment has as its target T1, Mdm2/p53 binding (Homo sapiens, UniProt Q00987, L33E).
T1 construct: having Mdm2 amino acids at positions 25 to 108
Briefly: Mdm2/p53 binding assay (HTRF, His-p53 / GST-Mdm2). As to conditions: His-p53 (aa 1-132) and GST-Mdm2 (aa 25-108, L33E), 6.25 nM each; 25° C., 1 hour. The procedure:
Next, a test compound was diluted with protein buffer solution containing 10% DMSO, and this test compound dilution was added in an amount of 4 μL/well to the plate.
These dilutions were added in an amount of 8 μL/well (total reaction solution volume: 20 μl/well). Then, the plate was left at 25° C. for 1 hour.
C (correction factor)=(A−BI)/D
The R value calculated from the well supplemented with His-p53, GST-Mdm2, the test compound, and each antibody was defined as R (sample). The R value calculated from the well supplemented with His-p53, GST-Mdm2, and each antibody but without the test compound was defined as R (control). The R value calculated from the well supplemented with GST-Mdm2, the test compound, and each antibody but without His-p53 was defined as R (background). T/C was calculated from the formula shown below. An IC50 value for Mdm2/p53 binding was calculated by sigmoid fitting using Prism (GraphPad Software).
T/C=(R (sample)−R (background))/(R (control)−R (background))
T1 sequence (Q00987 25-108 L33E, species assumed): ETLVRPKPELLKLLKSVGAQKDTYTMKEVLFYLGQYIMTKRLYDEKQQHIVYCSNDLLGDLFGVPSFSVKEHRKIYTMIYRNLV
`CC(C)C1=C(C(=O)N2CCC[C@H]2c2n[nH]c(=O)o2)SC2=N[C@@](C)(c3ccc(Cl)cc3)[C@@H](c3ccc(Cl)cc3)N21` [Example 89, 5-((2S)-1-{[(5R,6S)-5,6-Bis(4-chlorophenyl)-3-isopropyl-6-methyl-5,6-dihydroimidazo[2,1-b][1,3]thiazol-2-yl]carbonyl}pyrrolidin-2-yl)-1,3,4-oxadiazol-2(3H)-one]: the IC50 came to 143 nM. In other words, the sub-micromolar range. As to `CC(C)C1=C(CN2CCNC(=O)C2)SC2=NC(C)(c3ccc(Cl)cc3)C(c3ccc(Cl)cc3)N21` (racemic) [Example 18, 4-{[(5R*,6S*)-5,6-Bis(4-chlorophenyl)-3-isopropyl-6-methyl-5,6-dihydroimidazo[2,1-b][1,3]thiazol-2-yl]methyl}piperazin-2-one], the IC50 was determined as 87 nM. This IC50 lies about 1.6-fold lower than the previous one.

As for `CC(C)C1=C(C(=O)N2[C@H](C)CC[C@H]2C(=O)N2CCN(CCO)[C@H](C)C2)SC2=N[C@@](C)(c3ccc(Cl)cc3)[C@@H](c3ccc(Cl)cc3)N21` [Example 204, 2-{(2R)-4-[(5R)-1-{[(5R,6S)-5,6-Bis(4-chlorophehyl)-3-isopropyl-6-methyl-5,6-dihydroimidazo[2,1-b][1,3]thiazol-2-yl]carbonyl}-5-methyl-L-prolyl]-2-methylpiperazin-1-yl}ethanol], the IC50 worked out at 19 nM. Against the preceding compound, the IC50 is about 4.6-fold lower. As to `CC(C)C1=C(C(=O)N2[C@H](C)CC[C@H]2C(=O)N2CCN(C)[C@H](C)C2)SC2=N[C@@](C)(c3ccc(Cl)cc3)[C@@H](c3ccc(C(F)(F)F)cc3)N21` [Example 180, (5R,6S)-6-(4-Chlorophenyl)-2-{[(2S,5R)-2-{[(3R)-3,4-dimethylpiperazin-1-yl]carbonyl}-5-methylpyrrolidin-1-yl]carbonyl}-3-isopropyl-6-methyl-5-[4-(trifluoromethyl)phenyl]-5,6-dihydroimidazo[2,1-b][1,3]thiazole], the IC50 is 13 nM. `CC(C)C1=C(C(=O)N2CCC[C@H]2C(=O)N2CCC[C@H]2C(=O)O)SC2=N[C@@](C)(c3ccc(Cl)cc3)[C@@H](c3ccc(Cl)cc3)N21` [Example 68, 1-{[(5R,6S)-5,6-Bis(4-chlorophenyl)-3-isopropyl-6-methyl-5,6-dihydroimidazo[2,1-b][1,3]thiazol-2-yl]carbonyl}-L-prolyl-L-proline] showed an IC50 of 46 nM. `CC(C)C1=C(C(=O)N2[C@H](C)CC[C@H]2C(=O)N2CCN(C)[C@H](C)C2)SC2=N[C@@](C)(c3ccc(Cl)cc3)[C@@H](c3ccc(Cl)c(F)c3)N21` [Example 167, (5R,6S)-5-(4-Chloro-3-fluorophenyl)-6-(4-chlorophenyl)-2-{[(2S,5R)-2-{[(3R)-3,4-dimethylpiperazin-1-yl]carbonyl}-5-methylpyrrolidin-1-yl]carbonyl}-3-isopropyl-6-methyl-5,6-dihydroimidazo[2,1-b][1,3]thiazole] gave an IC50 of 10 nM.

As for `CC(C)C1=C(C(=O)N(C(C)C)[C@H]2C[C@H](N(C)C)C2)SC2=N[C@@](C)(c3ccc(Cl)cc3)[C@@H](c3ccc(Cl)cc3)N21` [Example 219, (5R,6S)-5,6-Bis(4-chlorophenyl)-N-[trans-3-(dimethylamino)cyclobutyl]-N,3-diisopropyl-6-methyl-5,6-dihydroimidazo[2,1-b][1,3]thiazole-2-carboxamide], the IC50 was found to be 4 nM. The same measure for `CC(C)C1=C(C(=O)N(C)C)SC2=N[C@@](C)(c3ccc(Cl)nc3)[C@@H](c3ccc(Cl)cc3)N21` [Example 220, (5R,6S)-5-(4-Chlorophenyl)-6-(6-chloropyridin-3-yl)-3-isopropyl-N,N,6-trimethyl-5,6-dihydroimidazo[2,1-b][1,3]thiazole-2-carboxamide]: 76 nM; for `CCCCC[C@]1(C)N=C2SC(C(=O)N3CCC[C@H]3C(=O)N(C)C)=C(C(C)C)N2[C@@H]1c1ccc(Cl)cc1` (relative stereo) [Example 99 (Cis-Isomer), 1-{[(5R*,6S*)-5-(4-chlorophenyl)-3-isopropyl-6-methyl-6-pentyl-5,6-dihydroimidazo[2,1-b][1,3]thiazol-2-yl]carbonyl}-N,N-dimethyl-L-prolinamide]: 194 nM.

In turn, `CC(C)C1=C(C(=O)N2CCC[C@H]2COC2CCN(C)CC2)SC2=N[C@@](C)(c3ccc(Cl)cc3)[C@@H](c3ccc(Cl)cc3)N21` [Example 211, (5R,6S)-5,6-Bis(4-chlorophenyl)-3-isopropyl-6-methyl-2-{[(2S)-2-{[(1-methylpiperidin-4-yl)oxy]methyl}pyrrolidin-1-yl]carbonyl}-5,6-dihydroimidazo[2,1-b][1,3]thiazole] registered an IC50 of 12 nM. Compared with the last compound, the IC50 is about 16-fold lower.

The compound `CC[C@@H]1CC[C@@H](C(=O)N2C[C@@H](C)N[C@@H](C)C2)N1C(=O)C1=C(C(C)C)N2C(=N[C@@](C)(c3ccc(Cl)cc3)[C@H]2c2ccc(Cl)cc2)S1` [Example 105, (5R,6S)-5,6-Bis(4-chlorophenyl)-2-[((2S,5R)-2-{[(3R,5S)-3,5-dimethylpiperazin-1-yl]carbonyl}-5-ethylpyrrolidin-1-yl)carbonyl]-3-isopropyl-6-methyl-5,6-dihydroimidazo[2,1-b][1,3]thiazole] registered an IC50 of 18 nM. Compared with the last compound, the IC50 is about 1.5-fold higher. As to `CNc1cc([C@]2(C)N=C3SC(C(=O)N4CCC[C@H]4C(=O)N4CCN(C)CC4)=C(C(C)C)N3[C@@H]2c2ccc(Cl)cc2)ccc1Cl` [Example 102], the IC50 was 80 nM. Compared with the last compound, the IC50 is about 4.4-fold higher. `CC[C@@H]1CC[C@@H](C(=O)N2CCN(C(C)=O)[C@H](C)C2)N1C(=O)C1=C(C(C)C)N2C(=N[C@@](C)(c3ccc(Cl)cc3)[C@H]2c2ccc(Br)cc2)S1` [Example 155, (5R,6S)-2-{[(2S,5R)-2-{[(3R)-4-Acetyl-3-methylpiperazin-1-yl]carbonyl}-5-ethylpyrrolidin-1-yl]carbonyl}-5-(4-bromophenyl)-6-(4-chlorophenyl)-3-isopropyl-6-methyl-5,6-dihydroimidazo[2,1-b][1,3]thiazole] yielded an IC50 of 30 nM. Consider `CC(C)C1=C(C(=O)N(C)C)SC2=N[C@@](C)(c3ccc(Cl)cc3)[C@@H](c3ccc(Cl)cc3)N21` [Example 39, (5R,6S)-5,6-Bis(4-chlorophenyl)-3-isopropyl-N,N,6-trimethyl-5,6-dihydroimidazo[2,1-b][1,3]thiazole-2-carboxamide], for which the IC50 amounted to 51 nM. Against the preceding compound, the IC50 is about 1.7-fold higher. As for `CC(C)C1=C(C(=O)N(C)[C@H]2C[C@@H](O)C2)SC2=N[C@@](C)(c3ccc(Cl)cc3)[C@@H](c3ccc(Cl)cc3)N21` [Example 164, (5R,6S)-5,6-Bis(4-chlorophenyl)-N-(cis-3-hydroxycyclobutyl)-3-isopropyl-N,6-dimethyl-5,6-dihydroimidazo[2,1-b][1,3]thiazole-2-carboxamide], the figure is 84 nM; as for `CC(=O)N1CCN(C(=O)CN(CC(C)C)C(=O)C2=C(C(C)C)N3C(=N[C@@](C)(c4ccc(Cl)cc4)[C@H]3c3ccc(Cl)cc3)S2)CC1` [Example 88, (5R,6S)—N-[2-(4-Acetylpiperazin-1-yl)-2-oxoethyl]-5,6-bis(4-chlorophenyl)-N-isobutyl-3-isopropyl-6-methyl-5,6-dihydroimidazo[2,1-b][1,3]thiazole-2-carboxamide], 29 nM.

In turn, `CC(=O)N(C)C[C@H](C)N(C)C(=O)C1=C(C(C)C)N2C(=N[C@@](C)(c3ccc(Cl)cc3)[C@H]2c2ccc(Cl)cc2)S1` [Example 74, (5R,6S)—N-{(1S)-2-[Acetyl(methyl)amino]-1-methylethyl}-5,6-bis(4-chlorophenyl)-3-isopropyl-N,6-dimethyl-5,6-dihydroimidazo[2,1-b][1,3]thiazole-2-carboxamide] displayed a half-inhibitory concentration (IC50) of 23 nM.

`CC(C)C1=C(C(=O)N2CC[C@H]2C(=O)N(C)C)SC2=N[C@@](C)(c3ccc(Cl)cc3)[C@@H](c3ccc(Cl)cc3)N21` [Example 93, (2S)-1-{[(5R,6S)-5,6-Bis(4-chlorophenyl)-3-isopropyl-6-methyl-5,6-dihydroimidazo[2,1-b][1,3]thiazol-2-yl]carbonyl}-N,N-dimethylazetidine-2-carboxamide] showed an IC50 of 135 nM.

As to `CC(C)C1=C(C(=O)N2[C@H](C)CC[C@H]2C(=O)N2C[C@@H](N)[C@H](F)C2)SC2=N[C@@](C)(c3ccc(Cl)cc3)[C@@H](c3ccc(Cl)cc3)N21` [Example 240, (3R,4R)-1-[(5R)-1-{[(5R,6S)-5,6-Bis(4-chlorophenyl)-3-isopropyl-6-methyl-5,6-dihydroimidazo[2,1-b][1,3]thiazol-2-yl]carbonyl}-5-methyl-L-prolyl]-4-fluoropyrrolidin-3-amine], the IC50 came out at 13 nM. Against the preceding compound, the IC50 is about 10-fold lower. On to `CC(C)C1=C(C(=O)N2[C@H](C)CC[C@H]2C(=O)N2CCN(CCO)[C@H](C)C2)SC2=N[C@@](C)(c3ccc(Cl)nc3)[C@@H](c3ccc(Cl)c(F)c3)N21` [Example 260, 2-{(2R)-4-[(5R)-1-{[(5R,6S)-5-(4-chloro-3-fluorophenyl)-6-(6-chloropyridin-3-yl)-3-isopropyl-6-methyl-5,6-dihydroimidazo[2,1-b][1,3]thiazol-2-yl]carbonyl}-5-methyl-L-prolyl]-2-methylpiperazin-1-yl}ethanol], for which the IC50 amounted to 15 nM.

The values above are taken from patent US20090312310A1 (priority 2006, published 2009).
